Positions count from the first letter of the chain named.
Legend:
HL-60 cells = assay: Antiproliferative activity, CellTiter-Glo, 7 days (Test Example 2), HL-60; assay type: cell-based; settings: Homo sapiens, 168 h, HL-60 cells (no Menin-MLL fusion), 7 days incubation
Source text: [0134] 1. Experimental Principle: MV-4-11, Molm-13, and OCI-AML-3 cells are human hematologic tumor cell lines harboring the Menin-MLL fusion. HL-60 is a wild-type human hematologic tumor cell line without Menin-MLL fusion. […] 2. Experimental Materials: MV-4-11, Molm-13, OCI-AML-3, and HL-60 cells were all purchased from Cobioer; CellTiter-Glo® was purchased from Promega (Cat. #G7571); RPMI-1640 was purchased from Viva Cell (Cat. #C3010-0500); IMDM was purchased from Viva Cell (Cat. #C3040-0500); fetal bovine serum (FBS) was purchased from Biosera (Cat. #FB-1058/500); penicillin-streptomycin was purchased from BasalMedia (Cat. #S110JV); 0.25% Trypsin-EDTA was purchased from BasalMedia (Cat. #S310KJ); dimethyl sulfoxide (DMSO) was purchased from Sinopharm (Cat. #30072418); 96-well plates were purchased from Corning (Cat. #3610); incubator was obtained from PHCbi (Model: MCO-18AC); inverted microscope was obtained from Mingmei (Cat. #MI52-0); automated cell counter was obtained from BodBoge (Model: JSY-SC-031N); microplate reader was obtained from PerkinElmer (Model: Envision); data processing software: GraphPad Prism 8.0. 3. Experimental Methods: Four cell lines in logarithmic growth phase were resuspended in their respective growth media (MV-4-11: IMDM + 20% FBS; Molm-13: RPMI-1640 + 20% FBS; OCI-AML-3: RPMI-1640 + 20% FBS; HL-60: RPMI-1640 + 10% FBS) and diluted to target densities (12,500, 6,250, 12,500, and 12,500/mL, respectively). The cell suspensions were seeded into 96-well plates at 80 µL per well and incubated overnight at 37°C in a 5% CO2 incubator. Culture medium served as the background control. Test compounds were dissolved in DMSO to prepare 10 mmol/L stock solutions. The stock solutions were first diluted to 2 mmol/L with DMSO, followed by 4-fold serial dilutions to generate 10 concentrations. From each concentration, 2 µL was diluted with 78 µL growth medium. […] After incubation at room temperature for 10 minutes, luminescence values were read using the EnVision microplate reader, and IC50 values were calculated using GraphPad Prism 8.0 software. […]

[1] = target: T1, wild-type Menin protein (Menin-WT) (Homo sapiens, UniProt O00255); assay: Fluorescence polarization assay of Menin binding to MLL peptide, wild type; settings: FP, 8 nM Menin, 4 nM MLL peptide
T1 sequence (O00255 1-615 isoform O00255-1): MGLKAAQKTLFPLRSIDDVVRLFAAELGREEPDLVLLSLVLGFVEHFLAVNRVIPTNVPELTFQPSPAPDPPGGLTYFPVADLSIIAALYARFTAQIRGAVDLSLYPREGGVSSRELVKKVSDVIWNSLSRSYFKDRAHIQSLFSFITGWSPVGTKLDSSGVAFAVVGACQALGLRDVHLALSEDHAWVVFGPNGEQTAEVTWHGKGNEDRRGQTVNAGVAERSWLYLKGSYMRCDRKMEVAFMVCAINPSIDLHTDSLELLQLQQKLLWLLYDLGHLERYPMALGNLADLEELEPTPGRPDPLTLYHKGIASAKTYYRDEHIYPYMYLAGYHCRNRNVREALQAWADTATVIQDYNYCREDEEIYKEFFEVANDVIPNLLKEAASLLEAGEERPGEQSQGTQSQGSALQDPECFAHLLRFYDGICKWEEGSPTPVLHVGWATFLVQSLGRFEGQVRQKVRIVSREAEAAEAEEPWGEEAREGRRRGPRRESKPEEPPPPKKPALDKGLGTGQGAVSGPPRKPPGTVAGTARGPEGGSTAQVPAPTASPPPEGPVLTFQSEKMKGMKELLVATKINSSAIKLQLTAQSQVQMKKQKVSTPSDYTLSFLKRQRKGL
Source text: (§1) • 1. Objective: To evaluate the inhibitory activity of compounds against wild-type Menin protein (Menin-WT) and its mutant variants (Menin-M327V, Menin-M327I, Menin-T349M, Menin-S160T, Menin-S160C, Menin-G331R, and Menin-G331D). • 2. Experimental Principle: The experiment employed fluorescence polarization (FP) to detect the binding of wild-type Menin protein and its mutant variants to MLL peptide. In the absence of inhibitors, binding of wild-type Menin protein and its mutant variants to MLL peptide generates a high FP signal; upon addition of inhibitors, the binding between Menin proteins and MLL peptide is disrupted, resulting in a low FP signal. • 3. Experimental Materials: Final concentration of wild-type Menin protein and its mutant variants: 8 nM; final concentration of MLL peptide: 4 nM. Assay buffer: 50 mM Tris-HCl (pH 8.0), 120 mM NaCl, 0.005% CA-630, 2 mM DTT. • 4. […] The plate was centrifuged at 1000 rpm for 60 seconds. Subsequently, 10 µL of MLL peptide was added to each assay well. The plate was centrifuged at 1000 rpm for 60 seconds and sealed with a sealing membrane. After incubation at 23°C for 60 minutes, the plate was read using a PerkinElmer Envision reader. Data Analysis: [formula]
(§2) Curve fitting: XLFIT software was used for curve fitting, employing a four-parameter logistic model with percent inhibition versus log(compound concentration) as variables.

Menin-M327V = target: T2, Menin-M327V (Homo sapiens, UniProt O00255, M322V); assay: Fluorescence polarization assay of Menin binding to MLL peptide, M327V mutant; settings: FP, 8 nM Menin, 4 nM MLL peptide
T2 sequence (O00255 1-615 isoform O00255-1 M327V): T1 sequence (O00255 1-615 isoform O00255-1) with M327V
Source text: as §1, §2

SMILES	IC50 (HL-60 cells)	IC50 [1]	IC50 (Menin-M327V)
CCN(C(=O)c1cc(F)ccc1Oc1cncnc1N1CC2(CCN(C[C@H]3CC[C@H](NS(=O)(=O)CC)CC3)CC2)C1)C(C)C [SNDX-5613, revumenib]	> 10 µM	0.0176 µM	1.29 µM
CCN(C(=O)c1cc(F)ccc1N1CCN([C@@H]2CCN([C@H](CCCN(C)CCOC)C(C)C)C2)c2ncncc21)C(C)C [Example 3]	> 10 µM	0.013 µM	0.0493 µM

Source: patent EP4775580A1, “COMPOUND, PHARMACEUTICAL COMPOSITION COMPRISING SAME, AND USE THEREOF” (Euregen Biopharma Co., Ltd., priority 2023, dated 2025)
